Assays:
Format in all cases: functional
M14 = assay: Cytotoxicity against Homo sapiens (human) M14 cells after 48 hr by sulforhodamine B assay; conditions: M14, 48 h
DU-145 = assay: Cytotoxicity against Homo sapiens (human) DU145 cells after 48 hr by sulforhodamine B assay; conditions: DU-145, 48 h
A549 = assay: Cytotoxicity against Homo sapiens (human) A549 cells after 48 hr by sulforhodamine B assay; conditions: A549, 48 h
RXF 393 = assay: Cytotoxicity against Homo sapiens (human) RXF393 cells after 48 hr by sulforhodamine B assay; conditions: RXF 393, 48 h
TK-10 = assay: Cytotoxicity against Homo sapiens (human) TK10 cells after 48 hr by sulforhodamine B assay; conditions: TK-10, 48 h; for CC50: read-out: LC50 (the source's name)
HOP-92 = assay: Cytotoxicity against Homo sapiens (human) HOP92 cells after 48 hr by sulforhodamine B assay; conditions: HOP-92, 48 h
CAKI-1 = assay: Cytotoxicity against Homo sapiens (human) Caki1 cells after 48 hr by sulforhodamine B assay; conditions: CAKI-1, 48 h; for CC50: read-out: LC50 (the source's name)
SK-MEL-2 = assay: Cytotoxicity against Homo sapiens (human) SK-MEL-2 cells after 48 hr by sulforhodamine B assay; conditions: SK-MEL-2, 48 h
SF-295 = assay: Cytotoxicity against Homo sapiens (human) SF295 cells after 48 hr by sulforhodamine B assay; conditions: SF-295, 48 h; for CC50: read-out: LC50 (the source's name)
NCI-H23 = assay: Cytotoxicity against Homo sapiens (human) NCI-H23 cells after 48 hr by sulforhodamine B assay; conditions: NCI-H23, 48 h; for CC50: read-out: LC50 (the source's name)
IGROV-1 = assay: Cytotoxicity against Homo sapiens (human) IGROV1 cells after 48 hr by sulforhodamine B assay; conditions: IGROV-1, 48 h
ACHN = assay: Cytotoxicity against Homo sapiens (human) ACHN cells after 48 hr by sulforhodamine B assay; conditions: for CC50: read-out: LC50 (the source's name)
OVCAR-5 = assay: Cytotoxicity against Homo sapiens (human) OVCAR5 cells after 48 hr by sulforhodamine B assay; conditions: OVCAR-5, 48 h; for CC50: read-out: LC50 (the source's name)
HCC 2998 = assay: Cytotoxicity against Homo sapiens (human) HCC2998 cells after 48 hr by sulforhodamine B assay; conditions: HCC 2998, 48 h; for CC50: read-out: LC50 (the source's name)
786-0 = assay: Cytotoxicity against Homo sapiens (human) 786-0 cells after 48 hr by sulforhodamine B assay; conditions: 786-0, 48 h
NCI-H460 = assay: Cytotoxicity against Homo sapiens (human) NCI-H460 cells after 48 hr by sulforhodamine B assay; conditions: NCI-H460, 48 h; for CC50: read-out: LC50 (the source's name)
UACC-257 = assay: Cytotoxicity against Homo sapiens (human) UACC257 cells after 48 hr by sulforhodamine B assay; conditions: UACC-257, 48 h
MOLT-4 = assay: Cytotoxicity against Homo sapiens (human) MOLT4 cells after 48 hr by sulforhodamine B assay; conditions: MOLT-4, 48 h; for CC50: read-out: LC50 (the source's name)
MCF7 = assay: Cytotoxicity against Homo sapiens (human) MCF7 cells assessed as cell growth at 10^-4 M after 48 hr by Alamar blue assay; conditions: MCF7, 48 h, read-out: Activity
Hs-578T = assay: Cytotoxicity against Homo sapiens (human) Hs 578T cells after 48 hr by sulforhodamine B assay
UACC-62 = assay: Cytotoxicity against Homo sapiens (human) UACC62 cells after 48 hr by sulforhodamine B assay; conditions: UACC-62, 48 h
EKVX = assay: Cytotoxicity against Homo sapiens (human) EKVX cells after 48 hr by sulforhodamine B assay; conditions: for CC50: read-out: LC50 (the source's name)
SF-268 = assay: Cytotoxicity against Homo sapiens (human) SF268 cells after 48 hr by sulforhodamine B assay; conditions: SF-268, 48 h
LOX IMVI = assay: Cytotoxicity against Homo sapiens (human) LOXIMVI cells after 48 hr by sulforhodamine B assay
T47D = assay: Cytotoxicity against Homo sapiens (human) T47D cells after 48 hr by sulforhodamine B assay
SK-OV-3 = assay: Cytotoxicity against Homo sapiens (human) SKOV3 cells after 48 hr by sulforhodamine B assay; conditions: SK-OV-3, 48 h
SK-MEL-5 = assay: Cytotoxicity against Homo sapiens (human) SK-MEL-5 cells after 48 hr by sulforhodamine B assay; conditions: SK-MEL-5, 48 h
[1] = Cytotoxicity against Homo sapiens (human) NCI-ADR-RES cells after 48 hr by sulforhodamine B assay
NCI-H322M = assay: Cytotoxicity against Homo sapiens (human) NCI-H322M cells after 48 hr by sulforhodamine B assay; conditions: for CC50: read-out: LC50 (the source's name)
MDA-MB-231 = assay: Cytotoxicity against Homo sapiens (human) MDA-MB-231 cells after 48 hr by sulforhodamine B assay; conditions: MDA-MB-231, 48 h
HOP-62 = assay: Cytotoxicity against Homo sapiens (human) HOP62 cells after 48 hr by sulforhodamine B assay; conditions: HOP-62, 48 h; for CC50: read-out: LC50 (the source's name)
[2] = read-out: LC50 (the source's name)

Compound: ClCc1ccccc1Cn1cnc2c(Cl)nc(Cl)nc21
- GI50 (M14): 1.38 µM
- LC50 (M14): 5.75 µM
- TGI (M14): 2.81 µM
- GI50 (DU-145): 0.13 µM
- LC50 (DU-145): 6.31 µM
- TGI (DU-145): 2.95 µM
- GI50 (A549): 2.23 µM
- TGI (A549): 4.67 µM
- GI50 (RXF 393): 0.1 µM
- TGI (RXF 393): 0.49 µM
- GI50 (TK-10): 1.45 µM
- TGI (TK-10): 2.88 µM
- CC50 (TK-10): 5.62 µM
- GI50 (HOP-92): 0.35 µM
- TGI (HOP-92): 0.97 µM
- GI50 (CAKI-1): 0.36 µM
- TGI (CAKI-1): 0.89 µM
- CC50 (CAKI-1): 3.09 µM
- GI50 (SK-MEL-2): 2.18 µM
- LC50 (concentration killing 50% of cells) (SK-MEL-2): 8.51 µM
- TGI (SK-MEL-2): 4.36 µM
- GI50 (SF-295): 1.9 µM
- TGI (SF-295): 3.38 µM
- CC50 (SF-295): 6.02 µM
- GI50 (NCI-H23): 1.51 µM
- TGI (NCI-H23): 3.09 µM
- CC50 (NCI-H23): 6.31 µM
- GI50 (IGROV-1): 1.54 µM
- LC50 (IGROV-1): 7.07 µM
- TGI (IGROV-1): 3.31 µM
- GI50 (ACHN): 0.47 µM
- TGI (ACHN): 1.62 µM
- CC50 (ACHN): 4.16 µM
- GI50 (OVCAR-5): 1.58 µM
- TGI (OVCAR-5): 2.95 µM
- CC50 (OVCAR-5): 5.62 µM
- TGI (HCC 2998): 3.38 µM
- CC50 (HCC 2998): 6.16 µM
- GI50 (786-0): 1.86 µM
- LC50 (786-0): 6.45 µM
- TGI (786-0): 3.47 µM
- GI50 (NCI-H460): 3.31 µM
- TGI (NCI-H460): 8.71 µM
- CC50 (NCI-H460): > 100 µM
- GI50 (UACC-257): 1.82 µM
- LC50 (concentration killing 50% of cells) (UACC-257): 8.51 µM
- TGI (UACC-257): 3.89 µM
- GI50 (MOLT-4): 0.2 µM
- TGI (MOLT-4): 0.63 µM
- CC50 (MOLT-4): 3.54 µM
- growth at 100 µM (MCF7): 0%
- GI50 (Hs-578T): 1.17 µM
- LC50 (Hs-578T): > 100 µM
- TGI (Hs-578T): 3.54 µM
- GI50 (UACC-62): 1.31 µM
- LC50 (concentration causing 50% net cell kill) (UACC-62): 5.24 µM
- TGI (UACC-62): 2.63 µM
- GI50 (EKVX): 1.77 µM
- TGI (EKVX): 3.23 µM
- CC50 (EKVX): 5.88 µM
- GI50 (SF-268): 1.77 µM
- TGI (SF-268): 4.16 µM
- GI50 (LOX IMVI): 0.15 µM
- LC50 (LOX IMVI): 0.85 µM
- TGI (LOX IMVI): 0.36 µM
- GI50 (T47D): 1.99 µM
- LC50 (T47D): > 100 µM
- TGI (T47D): 5.49 µM
- GI50 (SK-OV-3): 1.82 µM
- LC50 (SK-OV-3): 6.91 µM
- TGI (SK-OV-3): 3.54 µM
- GI50 (SK-MEL-5): 0.42 µM
- LC50 (SK-MEL-5): 4.26 µM
- TGI (SK-MEL-5): 1.54 µM
- GI50 [1]: 1.51 µM
- LC50 (concentration killing 50% of cells) [1]: 6.16 µM
- TGI [1]: 3.02 µM
- GI50 (NCI-H322M): 1.73 µM
- TGI (NCI-H322M): 3.27 µM
- CC50 (NCI-H322M): 5.88 µM
- GI50 (MDA-MB-231): 0.33 µM
- LC50 (MDA-MB-231): 3.98 µM
- TGI (MDA-MB-231): 1.38 µM
- GI50 (HOP-62): 2.04 µM
- TGI (HOP-62): 3.63 µM
- CC50 (HOP-62): 6.45 µM

Compound: ClCc1ccccc1Cn1cnc2nc(Cl)nc(Cl)c21
- GI50 (M14): 1.86 µM
- LC50 (M14): 6.45 µM
- TGI (M14): 3.46 µM
- LC50 (DU-145): 7.24 µM
- GI50 (A549): 2.81 µM
- TGI (A549): 5.75 µM
- CC50 (A549; [2]): > 100 µM
- GI50 (RXF 393): 0.001 µM
- TGI (RXF 393): 1.9 µM
- CC50 (RXF 393; [2]): 6.45 µM
- GI50 (TK-10): 19.5 µM
- TGI (TK-10): 33.9 µM
- CC50 (TK-10): 60.2 µM
- GI50 (HOP-92): 1.14 µM
- TGI (HOP-92): 2.81 µM
- CC50 (HOP-92; [2]): > 100 µM
- GI50 (CAKI-1): 19.5 µM
- TGI (CAKI-1): 34.7 µM
- CC50 (CAKI-1): 61.6 µM
- GI50 (SK-MEL-2): 2.75 µM
- LC50 (concentration killing 50% of cells) (SK-MEL-2): > 100 µM
- TGI (SK-MEL-2): 5.75 µM
- GI50 (SF-295): 19.9 µM
- TGI (SF-295): 35.5 µM
- CC50 (SF-295): 61.6 µM
- GI50 (NCI-H23): 19.1 µM
- TGI (NCI-H23): 40.7 µM
- CC50 (NCI-H23): 87.1 µM
- GI50 (IGROV-1): 2.88 µM
- LC50 (IGROV-1): 9.54 µM
- TGI (IGROV-1): 5.24 µM
- GI50 (ACHN): 0.35 µM
- TGI (ACHN): 1.25 µM
- CC50 (ACHN): 3.54 µM
- GI50 (OVCAR-5): 2.69 µM
- TGI (OVCAR-5): 5.75 µM
- CC50 (OVCAR-5): 28.8 µM
- GI50 (HCC 2998): 18.6 µM
- TGI (HCC 2998): 35.5 µM
- CC50 (HCC 2998): 66.1 µM
- GI50 (786-0): 2.63 µM
- LC50 (786-0): 30.9 µM
- TGI (786-0): 7.07 µM
- GI50 (NCI-H460): 2.39 µM
- TGI (NCI-H460): 5.88 µM
- CC50 (NCI-H460): > 100 µM
- GI50 (UACC-257): 1.99 µM
- LC50 (concentration killing 50% of cells) (UACC-257): 8.7 µM
- TGI (UACC-257): 4.16 µM
- GI50 (MOLT-4): 1.34 µM
- TGI (MOLT-4): 3.23 µM
- CC50 (MOLT-4): 7.94 µM
- growth at 100 µM (MCF7): 0%
- GI50 (Hs-578T): 0.67 µM
- LC50 (Hs-578T): > 100 µM
- TGI (Hs-578T): 2.57 µM
- GI50 (UACC-62): 1.2 µM
- LC50 (concentration causing 50% net cell kill) (UACC-62): 6.76 µM
- TGI (UACC-62): 2.81 µM
- GI50 (EKVX): 1.73 µM
- TGI (EKVX): 3.23 µM
- CC50 (EKVX): 6.02 µM
- GI50 (SF-268): 3.01 µM
- TGI (SF-268): 24.5 µM
- CC50 (SF-268; [2]): > 100 µM
- GI50 (LOX IMVI): 0.16 µM
- LC50 (LOX IMVI): 0.72 µM
- TGI (LOX IMVI): 0.35 µM
- GI50 (T47D): 0.58 µM
- LC50 (T47D): > 100 µM
- TGI (T47D): 5.24 µM
- GI50 (SK-OV-3): 5.88 µM
- LC50 (SK-OV-3): 56.2 µM
- TGI (SK-OV-3): 20.9 µM
- GI50 (SK-MEL-5): 0.74 µM
- LC50 (SK-MEL-5): 5.49 µM
- TGI (SK-MEL-5): 2.18 µM
- GI50 [1]: 2.34 µM
- LC50 (concentration killing 50% of cells) [1]: > 100 µM
- TGI [1]: 5.01 µM
- GI50 (NCI-H322M): 4.26 µM
- TGI (NCI-H322M): 14.5 µM
- CC50 (NCI-H322M): 39.8 µM
- GI50 (MDA-MB-231): 0.3 µM
- LC50 (MDA-MB-231): 3.23 µM
- TGI (MDA-MB-231): 0.91 µM
- GI50 (HOP-62): 2.69 µM
- TGI (HOP-62): 5.49 µM
- CC50 (HOP-62): 16.6 µM

From ChEMBL document CHEMBL3044672, “N9- and N7-(Chloromethyl Phenymethyl)Chloropurine Derivatives from , '-Dichloroxylenes: Synthesis and Anticancer Activity” (2005)
